According to publication PMC8626775, “Anti-schistosomal activities of quinoxaline-containing compounds: From hit identification to lead optimisation” (European Journal of Medicinal Chemistry, 2021):
Values joined by “and” are separate entries in the source; they are usually repeats but may differ in a detail not shown here. Equal values may be shown once. Read-outs that look alike come from different tables or passages of the source.

Experiments:
S. mansoni schistosomula = S. mansoni schistosomula high-throughput phenotype and motility screen (Roboworm), 72 h; type: cell-based, Schistosoma mansoni; settings: Schistosoma mansoni
Experimental: Cercariae derived from the NMRI ([…]) Puerto Rican strain (PR-1) of S. mansoni were shed from two Biomphalaria glabrata strains, the NMRI albino and pigmented outbred strains, under intensified lighting conditions (1 h of incubation at 26 °C). Cercariae were then mechanically transformed into schistosomula as previously described.
High-throughput screening (HTS) of selected compounds was conducted as previously described. Briefly, newly transformed schistosomula were distributed in a 384-well tissue culture plate (PerkinElmer, cat 6007460, seeding density of 120 parasites/well). Each compound (at a single concentration or two-fold titrations) was transferred into individual wells alongside the positive and negative controls (AUR at 10 μM final concentration in 0.625% DMSO and 0.625% DMSO, respectively). Schistosomula/compound co-cultures were then incubated at 37 °C for 72 h in a humidified atmosphere containing 5% CO2. Following the co-culture period, automatic assessment of compound-induced schistosomula motility and phenotypic changes were conducted with the high-content imaging platform Roboworm using the image analysis model previously described by Paveley et al..

S. mansoni adult worms = assay: S. mansoni adult worm motility screen (WormassayGP2), 72 h; type: cell-based, Schistosoma mansoni; settings: Schistosoma mansoni
Description: (§1) Mice (Mus musculus HsdOLa:TO - Tuck Ordinary; Envigo, UK) were used for the mammalian-specific propagation of the S. mansoni life cycle. Experimental animals were infected with 4000 or 180 S. mansoni cercariae/mouse and perfused three- or seven-weeks post-infection to obtain S. mansoni juvenile or adult worms, respectively. Preparation steps following perfusion have been described previously. Briefly, the parasite material was washed three times with pre-warmed adult worm media (DMEM (Gibco, Paisley, UK) supplemented with 10% (v/v) Fetal Calf Serum (FCS, Gibco, Paisley, UK), 1% (v/v) L-glutamine (Gibco, Paisley, UK) and an antibiotic mixture (150 Units/ml penicillin and 150 μg/ml streptomycin; Gibco, UK)) to remove residual host contamination and incubated in a humidified environment containing 5% CO2 at 37 °C for at least 1 h.
For the evaluation of anti-schistosomal activity on the adult stage of the parasite, 7-wk old worms were transferred into 48 well tissue culture plates (1–3 worm pairs/well, in duplicate). […] DMSO (0.5%) and praziquantel (10 μM in 0.5% DMSO) were also included as negative and positive control treatments. Treated adult worms were incubated for 72 h in a humidified environment containing 5% CO2 at 37 °C. Parasite motility after compound treatment was assessed by a digital image processing-based system (WormassayGP2), modified after Wormassay. Following compound-parasite co-incubation, eggs were collected, fixed in formalin (10% v/v formaldehyde) and enumerated aiming to collect further information on any compound-induced effects on parasite fecundity and IVLE production.

HepG2 cells = assay: HepG2 MTT cytotoxicity assay; settings: for Selectivity Index (SI) Adult worms: HepG2 CC50 versus adult worm EC50; for Selectivity Index (SI) Somula: HepG2 CC50 versus schistosomula EC50
Experimental: Initially the cells were handled under sterile conditions and grown at 37 °C in a humidified atmosphere containing 5% CO2. Cytotoxicity was evaluated by way of a 3-(4, 5- dimethylthiazol-2-yl)-2,5-diphenyl tetrazolium bromide (MTT) assay as previously described. The cells were counted in a dual chamber counting slide using the BIORAD TC-10 Automated cell counter, seeded in a 96-well plate (Fisher Scientific, Loughborough, UK) at a density of 2 × 10^4 cells/well and incubated in an atmosphere of 5% CO2 at 37 °C. […] The absorbance readings (at 570 nm) of the soluble formazan crystals were recorded using PolarStar Omega plate reader (BMG-Labtech). […] The latter was used to calculate the selectivity index (SI) of the compounds presented herein.

[1] = test system: adult S. japonicum male worms; assay: In vitro screening of S. japonicum adults at 100 nM (WormAssay motility, descriptors, severity score); type: cell-based, Schistosoma japonicum
Experimental: (§2) For each species, parasite recovery involved reverse perfusion of the hepatic portal and mesenteric system using DMEM (Fisher Scientific). Parasites were washed six times with Basch 169 medium supplemented with 100 U/ml penicillin and 100 μg/ml streptomycin before manually distributing approximately 5 males per well (on occasion 1 or 2 females might also be present) of a 24-well plate (Corning Costar 3524). […] The next morning, a final concentration of 100 nM compound (in 1 μL DMSO) was added to each well and the final volume made up to 2 ml with Basch 169 medium supplemented with antibiotics and FBS. Each compound was tested in triplicate (except for some instances tested in duplicate). […] The phenotypic characterisation of compound effects focused on male worms due to the greater range of their motility characteristics that include flexing, bending, stretching, sucker walking and adherence, compared to the more sedentary female worms. In addition to descriptors, WormAssay, as adapted for the schistosome, was used to measure average worm motility per well [72, 73].

[2] = test system: Adult S. haematobium worms; assay: In vitro screening of S. haematobium adults at 100 nM (WormAssay motility, descriptors, severity score); type: cell-based, Schistosoma haematobium
Experimental: as §2

[3] = test system: Juvenile S. mansoni worms; assay: S. mansoni juvenile worm screen (motility score, propidium iodide uptake), 72 h; type: cell-based, Schistosoma mansoni; settings: juvenile worms, positive controls at 15 μM, Fig. S4
Description: as §1
Juvenile worms were distributed in a 96-well tissue culture plate (n = 20–25 individuals/well) containing 200 μl/well. Compounds were added to each treatment well at a concentration range of 10–0.156 μM. Negative (1.25% DMSO) and positive (15 μM PZQ and 15 μM AUR in 1.25% DMSO) controls were also included in each drug screen. Treated juvenile worms were incubated for 72 h in a humidified environment containing 5% CO2 at 37 °C. Compound-induced phenotype and motility effects were quantified using an adapted version of the WHO-TDR scoring system (in summary: 0 = dead, 1 = movement of the suckers only and slight contraction of the body, 2 = movement at the anterior and posterior regions only, 3 = full body movement but sluggish and 4 = normal movement). Additionally, differential uptake of propidium iodide (PI, P1304MP, Sigma-Aldrich, UK) was used to quantify worm viability as previously described. In brief, after 15 min incubation with 2 μg/ml PI, the parasite cultures were imaged under both bright-field and fluorescent settings (PI detection, 562 and 624 excitation and emission wavelengths, respectively) using an ImageXpressXL high content imager (Molecular Devices, UK). Enumeration of PI positive and negative juvenile worms was manually performed across all parasites within the well and the percentage of PI positive parasite was calculated per well.

[4] = 72 h, Table 2, average of phenotype and motility EC50, 72 h, read-out: Activity on schistosomula (EC50, μM - 72 h) Average
[5] = 72 h, Table 2, motility, 72 h, three replicate titrations (0.313–10 μM), read-out: Activity on schistosomula (EC50, μM - 72 h) M
[6] = 72 h, Table 2, phenotype, 72 h, three replicate titrations (0.313–10 μM), read-out: Activity on schistosomula (EC50, μM - 72 h) P
[7] = Table 4, Series A, read-out: Anti-schistosomal activity EC50 Schistosomula (μM) Motility
[8] = Table 4, Series A, read-out: Anti-schistosomal activity EC50 Schistosomula (μM) Phenotype
[9] = Table 4, Series A, read-out: Anti-schistosomal activity EC50 Adult (nM) Motility
[10] = Table 2, 72 h, titrations 0.0095–5 μM, WormassayGP2, read-out: Activity on adult worms (EC50, μM - 72 h) Motility

SMILES	EC50 (S. mansoni schistosomula; [4])	EC50 (S. mansoni schistosomula; [5])	EC50 (S. mansoni schistosomula; [6])	EC50 (S. mansoni schistosomula; [7])	EC50 (S. mansoni schistosomula; [8])	EC50 (S. mansoni adult worms; [9])	EC50 (S. mansoni adult worms; [10])	Selectivity Index (SI) Adult worms (HepG2 cells)	Selectivity Index (SI) Somula (HepG2 cells)	further results
O=[N+]([O-])c1ccc2nc(Nc3cccc(C(F)(F)F)c3)c(Nc3cccc(C(F)(F)F)c3)nc2c1 [Compound 30, 6-nitro-N2, N3-bis(3-(trifluoromethyl)phenyl)quinoxaline-2,3-diamine]	0.38 µM	0.43 µM	0.34 µM	0.43 µM	0.34 µM	2.59 nM	2.59 nM	348 and 347.59	2.36	Effect on S. japonicum adult male worms ([1]; 5, 24, 48 and 72 h): decreased motility starting at 48 h; SEVERITY SCORES 5 h ([1]; S. japonicum, 5 h, max = 4, one line per replicate): 0; SEVERITY SCORES 24 h ([1]; S. japonicum, 24 h, max = 4, one line per replicate): 0; SEVERITY SCORES 48 h ([1]; S. japonicum, 48 h, max = 4, one line per replicate): 2 and 1; DESCRIPTORS 48 h ([1]; S. japonicum, 48 h, one line per replicate): S, on sides and S; SEVERITY SCORES 72 h ([1]; S. japonicum, 72 h, max = 4, one line per replicate): 2 and 1; DESCRIPTORS 72 h ([1]; S. japonicum, 72 h, one line per replicate): S, on sides and S+; Effect on S. haematobium adult worms ([2]; 5, 24, 48 and 72 h): relatively mild effects; SEVERITY SCORES 5 h ([2]; S. haematobium, 5 h, max = 4, one line per replicate): 0; SEVERITY SCORES 24 h ([2]; S. haematobium, 24 h, max = 4, one line per replicate): 0; SEVERITY SCORES 48 h ([2]; S. haematobium, 48 h, max = 4, one line per replicate): 1 and 2; DESCRIPTORS 48 h ([2]; S. haematobium, 48 h, one line per replicate): S-unc, on sides; SEVERITY SCORES 72 h ([2]; S. haematobium, 72 h, max = 4, one line per replicate): 2; DESCRIPTORS 72 h ([2]; S. haematobium, 72 h, one line per replicate): S-unc, on sides
O=[N+]([O-])c1ccc2nc(Nc3ccc(F)c(C(F)(F)F)c3)c(Nc3ccc(F)c(C(F)(F)F)c3)nc2c1 [Compound 32, N2, N3-bis(4-fluoro-3-(trifluoromethyl)phenyl)-6-nitroquinoxaline-2,3-diamine]	0.72 µM	0.54 µM	0.89 µM	0.54 µM	0.89 µM	11 nM	11 nM	60.99	0.94	
O=C(C1CCCCC1)N1CC(=O)N2CCc3ccccc3C2C1 (stereo not drawn) [PZQ, praziquantel, reference compound]	1.01 µM	0.88 µM	1.14 µM				107 nM	945.31	100.05	EC50 (S. mansoni schistosomula; 72 h, Table 1, 72 h, two dose response titrations (0.313–10 μM), 95% CI in brackets, read-out: Activity on schistosomula (EC50, μM - 72 h) Motility): 0.88 µM; EC50 (S. mansoni schistosomula; 72 h, Table 1, 72 h, two dose response titrations (0.313–10 μM), 95% CI in brackets, read-out: Activity on schistosomula (EC50, μM - 72 h) Phenotype): 1.14 µM; EC50 (S. mansoni schistosomula; 72 h, Table 1, mean of phenotype and motility EC50, 72 h, read-out: Activity on schistosomula (EC50, μM - 72 h) Average): 1.01 µM; PI pos [3]: 100%
